Data from PMC11093748, “De novo identification of CD4^+ T cell epitopes” (Nature Methods, 2024).

Tests used:
GSE.20D11 TCR = assay: HLA-DQ8 SABR-II (+ HLA-A2.1 SABR) library screen, enrichment score; format: cell-based, human
Description: To test whether HLA-DQ8 SABR-II could be used for antigen discovery, we curated a list of insulin B, insulin C and HIP epitopes published by Wiles et al.[58] and cloned them into the DQ8 SABR-II backbone using the same pooled cloning strategy as the I-Ag7 SABR-II library (Supplementary Table 2). Furthermore, we combined SABR-I (the HLA-A*0201 library reported in our previous work[27]) and SABR-II libraries at a cellular level and screened against the GSE.20D11 TCR.
(§1) To generate the I-Ag7 restricted SABR library, we combined all Immune Epitope Database epitopes with a published immunopeptidome generated by Wan et al.[51]. Sequences were filtered remove all post-translational modifications except deamidation and HIPs and trimmed between 9–25 amino acid lengths. For the insulin C HIP and HLA-DQ8 library, non-contiguous epitopes from Wiles et al.[66] as well as all Immune Epitope Database epitopes were combined to generate the epitope list. Epitope sequences were back-translated using the backtranslate_fast.py script.
(§2) For SABR library screens, 3 × 10^6 NFAT–GFP Jurkat cells expressing the SABR library were labeled with CellTrace Violet (BioLegend) according to the manufacturer’s protocol before incubation with 3 × 10^6 Jurkat cells expressing the TCR of interest. These mixtures were incubated in a six-well plate for 16–20 h. Cells were stained with anti-CD69-APC-Cy7 where indicated (BioLegend) and the top 1–2% of GFP^+CD69^+ cells were sorted for genomic DNA extraction, indexing and sequencing (see below). Multiplexed assays were scaled on a per-TCR basis (for example 3 × 10^6 for each of three TCRs against 9 × 10^6 library cells). For single SABR assays, unless otherwise defined, 5 × 10^5 SABR expressing NFAT–GFP Jurkat cells (or 5KC cells) were labeled with CellTrace Violet (BioLegend) according to the manufacturer’s protocol before incubation with 5 × 10^5 TCR-expressing Jurkat cells (or 5KC cells) in a round-bottom 96-well plate for 16–20 h. Cells were stained with anti-CD69-APC-Cy7 when indicated and acquired on the Attune NxT flow cytometer (Thermo Fisher Scientific). All flow analysis was performed using FlowJo (BD). For Daudi cell co-culture, 1 × 10^6 Jurkat cells expressing the TCR of interest were incubated with 1 × 10^6 Daudi cells expressing a SABR of interest for 3 days. On day 3, cells were labeled with anti-RT1B-PE and anti-Fas-APC-Cy7 before being acquired on the Attune NxT flow cytometer.
Genomic DNA was extracted from sorted cells immediately after sorting, using the PureLink genomic DNA extraction kit (Life Technologies). The integrated SABR vectors were amplified with KOD polymerase (Millipore) and two rounds of amplification. In the first round, IDT-UD-SABR-C2-F and IDT-UD-SABR-C2-R primers were used to amplify the epitope. In the second round, UDI0001-R and UDI0001-F primers (representative of index 1) were used to add Illumina unique dual indexes (UDIs) to the amplicons. A different UDI was used for each sample. The reactions were pooled and purified with the NucleoSpin gel and PCR purification kit (Takara). The purified PCR product was checked before sequencing using 2% agarose gel and subjected to sequencing on a HiSeq4000 (Fulgent Genetics). Unaligned reads generated by the sequencer were stored in FASTQ files. FASTQ files were concatenated to generate one file for read1 and read2 each. The sequences were demultiplexed into individual indexes using demultiplex_dual.py. Epitopes were extracted and scored using epitope_extract_fastq_v1.1.py and merge_counts_split_v2.1.py. The ES was calculated using Microsoft Excel (Microsoft) workbooks.

TCR3 [1] = assay: I-Ag7 SABR-II HIP library screen, enrichment score; format: cell-based, mouse
Description: (§3) Given the predominance of HIP-reactive TCRs, we hypothesized that there may be other TCRs that respond to HIPs that were not encoded in our initial library configuration. While the initial I-Ag7 SABR-II library consisted of a number of HIPs, HIP formation is thought to be more widespread in pancreatic β-cells[52],[70]. Therefore, we sought to construct a defined, HIP-focused library to probe whether there were any undiscovered HIP-reactive TCRs that could be recognized by the clonally expanded TCR in our dataset. To test this, we utilized a published proteomic dataset, which predicted that several proteins that were highly expressed in secretory granules of β-cells may contribute to HIP formation. Using their predictions, we built a theoretical HIP library, in which all possible ‘left’ halves of the insulin C chain derived from natural cleavage products were fused to ‘right’ halves derived from secretory granule proteins (Fig. 5a). This 2,561-epitope library (12–25 amino acids per epitope) consisted of only HIPs and a small number of positive control epitopes (Supplementary Table 5). We screened the top three clonally expanded TCRs (TCR1, TCR2 and TCR3) against this library, as these TCRs had not been de-convoluted using the original library. […] To confirm that the HIP itself was important for the cognate interaction, we cloned single 14-mer epitopes into SABR-IIs consisting of seven amino acids of the left portion of the HIP and seven amino acids of the right portion of the HIP. In this way, no nine amino acids from either peptide sequence alone could occupy the binding pocket of I-Ag7, ensuring that TCR reactivity spanned the HIP junction. […] Of note, in all the epitopes that were tested, the ‘left’ half derived from insulin C was conserved, whereas the ‘right’ halves were derived from several other proteins (Fig. 5d). […] Moreover, the promiscuous binding of TCR3 to HIPs corroborates evidence from other NOD mouse-derived TCRs reacting to multiple HIPs[72].
as §1
as §2, with “cytometer. […]” for “cytometer.”

TCR3 [2] = assay: Single SABR-II co-incubation, NFAT-GFP Jurkat; format: cell-based, mouse; conditions: TCR 3, Fig 5C
Description: as §3, §2

TCR4 = assay: Single SABR-II co-incubation, NFAT-GFP Jurkat; format: cell-based, mouse; conditions: TCR 4, Fig 5C
Description: (§4) We performed systematic screening of the cloned TCRs against the I-Ag7 SABR-II library. Several TCRs along with a positive control (such as BDC2.5 or 4-8Ins) were screened individually against the library for each sort (Extended Data Fig. 6a and Supplementary Table 4). High- and low-confidence ES zones for each screened TCR were defined by the ES values of the control TCR’s cognate epitopes. For all putative cognate epitopes, single SABR-IIs were constructed, expressed in NFAT–GFP Jurkat cells and used for co-incubation with the corresponding TCRs. Co-incubation assays that yielded a GFP signal higher than that obtained in assays with no TCR were determined to be positive and the epitopes deemed true cognate ligands (Extended Data Fig. 6b,c). Using this strategy, we obtained epitopes in the high-confidence zone for eight TCRs (Fig. 3a and Extended Data Fig. 6b,d). Among numerous altered peptide ligands (APLs), these TCRs recognized the physiological InsC-ChgA HIP ([…] and analogs, recognized by TCR5, TCR6B, TCR9 and TCR34), InsC-Iapp HIP ([…] and analogs, recognized by TCR4 and TCR15) and InsB9:23 ([…] and analogs recognized by TCR24 and TCR37). These cognate high-confidence hits were validated using single SABR-II co-incubation assays (Fig. 3b and Extended Data Fig. 7a). Further validations using in vitro mouse interleukin-2 (mIL-2) secretion by TCR-expressing 5KC reporter cells[13] or CD25 expression by TCR-expressing splenic CD4^+ T cells upon stimulation with the cognate epitope were performed (Extended Data Fig. 7b,c). Furthermore, low-confidence hits were called for ten TCRs and tested in co-incubation assays.
as §2

Jurkat cells, No TCR = assay: Single SABR-II co-incubation, background without TCR; format: cell-based, human; conditions: No TCR, Fig 5C
Description: as §4, §2

[3] = ES = TCRObserved - TCRPredicted, TCRPredicted = LIBObserved x SLOPE + INTERCEPT, SLOPE 1.10224, INTERCEPT -1.65707e-5
[4] = HLA-A2.1 and HLA-DQ8 SABR libraries screened simultaneously, reads mapped to DQ8 library, one biological experiment
[5] = HIP library, TCR 3, TCR_Mean of 3 replicates minus PREDICTED_TCR (slope 0.926662, intercept 2.88051e-5)
[6] = I-Ag7 HIP library, one biological experiment

## AAPSVFIFPPSDEQLK
GSE.20D11 TCR; [3]
  Enrichment score: -0.0003017
GSE.20D11 TCR; [4]
  Enrichment score: -0.0003017

## AASKERSGVSL
GSE.20D11 TCR; [3]
  Enrichment score: 3.541e-5
GSE.20D11 TCR; [4]
  Enrichment score: 3.541e-5

## APKRPPSAF
GSE.20D11 TCR; [3]
  Enrichment score: 2.7496e-5
GSE.20D11 TCR; [4]
  Enrichment score: 2.7496e-5

## CDGERPTLAFLQDVM
GSE.20D11 TCR; [3]
  Enrichment score: -0.0002437
GSE.20D11 TCR; [4]
  Enrichment score: -0.0002437

## DPQVEQLELGGSKDSDKGQQDGFE
TCR3 [1]; [5]
  Enrichment score: 0.001805

## EDPQVEQLELGGAEDQELESLSAI
TCR3 [1]; [5]
  Enrichment score: 0.001322

## EDPQVEQLELGGKADEFPDFYDSE
TCR3 [1]; [5]
  Enrichment score: 0.001943

## EQLELGGKADEFPD [14-mer hybrid insulin peptide spanning the fusion junction, TCR3 hit]
TCR3 [2]; technical replicate 1
  %GFP+CD69+ cells of SABR-NFAT-GFP-Jurkat cells: 38.6%
TCR3 [2]; technical replicate 2
  %GFP+CD69+ cells of SABR-NFAT-GFP-Jurkat cells: 37.2%
TCR4; technical replicate 1
  %GFP+CD69+ cells of SABR-NFAT-GFP-Jurkat cells: 11.4%
TCR4; technical replicate 2
  %GFP+CD69+ cells of SABR-NFAT-GFP-Jurkat cells: 11.5%
Jurkat cells, No TCR; technical replicate 1
  %GFP+CD69+ cells of SABR-NFAT-GFP-Jurkat cells: 11.2%
Jurkat cells, No TCR; technical replicate 2
  %GFP+CD69+ cells of SABR-NFAT-GFP-Jurkat cells: 12.4%

## EVEDEVEDPQVAQLELGGGPGAGD [theoretical HIP of the I-Ag7 HIP library]
TCR3 [1]; [6]
  Enrichment score: 2.439e-5

## EVEDEVEDPQVEQLELGGSPGDLQ [theoretical HIP of the I-Ag7 HIP library]
TCR3 [1]; [6]
  Enrichment score: 0.0001951

## EVEDFVKQHLCGPHLVEALYLVCG [theoretical HIP of the I-Ag7 HIP library]
TCR3 [1]; [6]
  Enrichment score: -1.381e-6

## EVEDFVKQHLCGSHLVEALYLVCG [theoretical HIP of the I-Ag7 HIP library]
TCR3 [1]; [6]
  Enrichment score: -0.0001794

## EVEDGIVDQCCTSICSLYQLENYC [theoretical HIP of the I-Ag7 HIP library]
TCR3 [1]; [6]
  Enrichment score: 1.206e-5

## EVEDPQVEQLELNAARDPNRESLD
TCR3 [1]; [5]
  Enrichment score: 0.002309

## QLELGGSKDSDKGQ [14-mer hybrid insulin peptide spanning the fusion junction, TCR3 hit]
TCR3 [2]; technical replicate 1
  %GFP+CD69+ cells of SABR-NFAT-GFP-Jurkat cells: 10.5%
TCR3 [2]; technical replicate 2
  %GFP+CD69+ cells of SABR-NFAT-GFP-Jurkat cells: 9.28%
TCR4; technical replicate 1
  %GFP+CD69+ cells of SABR-NFAT-GFP-Jurkat cells: 9.32%
TCR4; technical replicate 2
  %GFP+CD69+ cells of SABR-NFAT-GFP-Jurkat cells: 9.4%
Jurkat cells, No TCR; technical replicate 1
  %GFP+CD69+ cells of SABR-NFAT-GFP-Jurkat cells: 9.03%
Jurkat cells, No TCR; technical replicate 2
  %GFP+CD69+ cells of SABR-NFAT-GFP-Jurkat cells: 10.7%

## QVEQLELNAARDPN [14-mer hybrid insulin peptide spanning the fusion junction, TCR3 hit]
TCR3 [2]; technical replicate 1
  %GFP+CD69+ cells of SABR-NFAT-GFP-Jurkat cells: 66.4%
TCR3 [2]; technical replicate 2
  %GFP+CD69+ cells of SABR-NFAT-GFP-Jurkat cells: 66.1%
TCR4; technical replicate 1
  %GFP+CD69+ cells of SABR-NFAT-GFP-Jurkat cells: 2.09%
TCR4; technical replicate 2
  %GFP+CD69+ cells of SABR-NFAT-GFP-Jurkat cells: 2.09%
Jurkat cells, No TCR; technical replicate 1
  %GFP+CD69+ cells of SABR-NFAT-GFP-Jurkat cells: 2.19%
Jurkat cells, No TCR; technical replicate 2
  %GFP+CD69+ cells of SABR-NFAT-GFP-Jurkat cells: 2.2%

## VEDPQVEQLELGSGKEVKGEEKGE
TCR3 [1]; [5]
  Enrichment score: 0.002292

## VEQLELGAKQEEKE [14-mer hybrid insulin peptide spanning the fusion junction, TCR3 hit]
TCR3 [2]; technical replicate 1
  %GFP+CD69+ cells of SABR-NFAT-GFP-Jurkat cells: 80.7%
TCR3 [2]; technical replicate 2
  %GFP+CD69+ cells of SABR-NFAT-GFP-Jurkat cells: 80.6%
TCR4; technical replicate 1
  %GFP+CD69+ cells of SABR-NFAT-GFP-Jurkat cells: 1.47%
TCR4; technical replicate 2
  %GFP+CD69+ cells of SABR-NFAT-GFP-Jurkat cells: 1.36%
Jurkat cells, No TCR; technical replicate 1
  %GFP+CD69+ cells of SABR-NFAT-GFP-Jurkat cells: 1.47%
Jurkat cells, No TCR; technical replicate 2
  %GFP+CD69+ cells of SABR-NFAT-GFP-Jurkat cells: 1.55%

## VEQLELGSGKEVKG [14-mer hybrid insulin peptide spanning the fusion junction, TCR3 hit]
TCR3 [2]; technical replicate 1
  %GFP+CD69+ cells of SABR-NFAT-GFP-Jurkat cells: 78.8%
TCR3 [2]; technical replicate 2
  %GFP+CD69+ cells of SABR-NFAT-GFP-Jurkat cells: 77.6%
TCR4; technical replicate 1
  %GFP+CD69+ cells of SABR-NFAT-GFP-Jurkat cells: 4.13%
TCR4; technical replicate 2
  %GFP+CD69+ cells of SABR-NFAT-GFP-Jurkat cells: 4.17%
Jurkat cells, No TCR; technical replicate 1
  %GFP+CD69+ cells of SABR-NFAT-GFP-Jurkat cells: 3.79%
Jurkat cells, No TCR; technical replicate 2
  %GFP+CD69+ cells of SABR-NFAT-GFP-Jurkat cells: 4%
